Test results taken from publication PMC9866482, “Determination of Chemical Composition and Investigation of Biological Activities of Ocimum basilicum L” (Molecules, 2023).
Marks after values point to notes of the source that are not given here. One block for each compound: values may come before it.

How the values were obtained:
[1] = system: Listeria monocytogenes ATCC 13932; assay: MIC and MBC by microdilution; type: cell-based; details: ATCC13932, head does not say MIC or MBC, read-out: Controls (MIC of positive control)
Protocol: (§1) The bacterial strains were revived by inoculation in Mueller–Hinton Agar (MHA) followed by incubation at 37 °C for 24 h. A bacterial suspension (0.5 McFarland) was prepared in sterile physiologic water (0.9% NaCl) from the obtained culture. The yeast strain was inoculated in Sabouraud’s agar (SA) and incubated at 25 °C for 48 h, then a yeast suspension (0.5 McFarland) was prepared in sterile physiological water. The Fungi strains were sub-cultured in SA and incubated at 25 °C for 5 days. Afterward, the culture was washed with 2 mL of sterile physiological water. The suspension was transferred to a sterile assay tube, where the heavy particles were allowed to settle for 5 min. The upper homogeneous suspensions were transferred to a new sterile tube and adjusted microscopically to about 10^4 CFU/mL. […] The minimum inhibitory concentration (MIC) is defined as the lowest concentration of EO or extract that can inhibit the growth of microorganisms. […] Mueller–Hinton broth (MHB) (Biokar, Beauvais, France) was used for bacteria, whereas Sabouraud broth (Biokar, Beauvais, France) was employed for yeast. The incubation was carried out at 37 °C for 24 h for the bacteria and at 25 °C for 48 h for the yeasts. However, MIC determination for fungi was carried out by the gradient plate method according to the protocol previously described. Chloramphenicol was used as a positive control for bacteria, while nystatin was used for yeasts and fungi. Minimum bactericidal concentration (MBC) corresponds to the lowest EO or extract concentration that can kill the microorganism. The same microdilution experiment used in determining the MIC was used.

[2] = system: Staphylococcus aureus ATCC 29213; assay: MIC and MBC by microdilution; type: cell-based; details: ATCC29213, head does not say MIC or MBC, read-out: Controls (MIC of positive control)
Protocol: as §1

[3] = system: Proteus mirabilis ATCC 25933; assay: MIC and MBC by microdilution; type: cell-based; details: ATCC25933, head does not say MIC or MBC, read-out: Controls (MIC of positive control)
Protocol: as §1

[4] = system: Salmonella enterica Typhimurium ATCC 700408; assay: MIC and MBC by microdilution; type: cell-based; details: head does not say MIC or MBC, read-out: Controls (MIC of positive control)
Protocol: as §1

[5] = system: Escherichia coli ATCC 25922; assay: MIC and MBC by microdilution; type: cell-based; details: ATCC25922, head does not say MIC or MBC, method names the control for MIC, read-out: Controls (MIC of positive control)
Protocol: as §1

[6] = system: Bacillus subtilis ATCC 6633; assay: MIC and MBC by microdilution; type: cell-based; details: ATCC6633, head does not say MIC or MBC, read-out: Controls (MIC of positive control)
Protocol: as §1

[7] = system: Listeria monocytogenes ATCC 13932; assay: Disc diffusion assay; type: cell-based; details: ATCC13932, disc with 10 µL EO or aqueous extract, chloramphenicol 30 µg, read-out: Diameters of the inhibition zones
Protocol: (§2) The bacterial strains were revived by inoculation in Mueller–Hinton Agar (MHA) followed by incubation at 37 °C for 24 h. A bacterial suspension (0.5 McFarland) was prepared in sterile physiologic water (0.9% NaCl) from the obtained culture. The yeast strain was inoculated in Sabouraud’s agar (SA) and incubated at 25 °C for 48 h, then a yeast suspension (0.5 McFarland) was prepared in sterile physiological water. The Fungi strains were sub-cultured in SA and incubated at 25 °C for 5 days. Afterward, the culture was washed with 2 mL of sterile physiological water. The suspension was transferred to a sterile assay tube, where the heavy particles were allowed to settle for 5 min. The upper homogeneous suspensions were transferred to a new sterile tube and adjusted microscopically to about 10^4 CFU/mL.
(§3) Briefly, the culture suspension was inoculated by swab on optimal culture media (MHA for bacteria and SA for yeasts and fungi). Afterward, six mm diameter sterile paper discs soaked in 10 µL of EO (mixed with 5% dimethyl sulfoxide (DMSO)) or aqueous extract were deposited on each plate. Chloramphenicol (30 µg) was used as a positive control for bacteria, and nystatin (100 I.U.) was used as a positive control for yeasts and fungi, while DMSO (10 µL; 5%) as a negative control. Incubation was then conducted at 37 °C for 24 h, 25 °C for 48 h, and 25 °C for 72 h for bacteria, yeasts, and fungi, respectively. After incubation, the diameters of the inhibition zones were measured in millimeters, and the results were expressed as the mean ± standard deviation (SD) of three replicates.

[8] = system: Staphylococcus aureus ATCC 29213; assay: Disc diffusion assay; type: cell-based; details: ATCC29213, disc with 10 µL EO or aqueous extract, chloramphenicol 30 µg, read-out: Diameters of the inhibition zones
Protocol: as §2, §3

[9] = system: Proteus mirabilis ATCC 25933; assay: Disc diffusion assay; type: cell-based; details: ATCC25933, disc with 10 µL EO or aqueous extract, chloramphenicol 30 µg, read-out: Diameters of the inhibition zones
Protocol: as §2, §3

[10] = system: Salmonella enterica Typhimurium ATCC 700408; assay: Disc diffusion assay; type: cell-based; details: disc with 10 µL EO or aqueous extract, chloramphenicol 30 µg, read-out: Diameters of the inhibition zones
Protocol: as §2, §3

[11] = system: Escherichia coli ATCC 25922; assay: Disc diffusion assay; type: cell-based; details: ATCC25922, disc with 10 µL EO or aqueous extract, chloramphenicol 30 µg, read-out: Diameters of the inhibition zones
Protocol: as §2, §3

[12] = system: Bacillus subtilis ATCC 6633; assay: Disc diffusion assay; type: cell-based; details: disc with 10 µL EO or aqueous extract, chloramphenicol 30 µg
Protocol: as §2, §3

Candida albicans [13] = assay: MIC and MBC by microdilution (yeast); type: cell-based; details: head does not say MIC or MBC
Protocol: as §1, with “Chloramphenicol was used as a positive control for bacteria, while nystatin was used for yeasts and fungi. Minimum bactericidal concentration (MBC) corresponds to the lowest EO or extract concentration that can kill the microorganism. The same microdilution experiment used in determining the MIC was used.” left out

Aspergillus niger [14] = assay: Disc diffusion assay; type: cell-based; details: disc with 10 µL EO or aqueous extract, nystatin 100 I.U.
Protocol: as §2, §3

Trichophyton rubrum [15] = assay: Disc diffusion assay; type: cell-based; details: disc with 10 µL EO or aqueous extract, nystatin 100 I.U.
Protocol: as §2, §3

Candida albicans [16] = assay: Disc diffusion assay; type: cell-based; details: disc with 10 µL EO or aqueous extract, nystatin 100 I.U.
Protocol: as §2, §3

Aspergillus niger [17] = assay: MIC by gradient plate method, MBC; type: cell-based; details: head does not say MIC or MBC
Protocol: as §1, with “Chloramphenicol was used as a positive control for bacteria, while nystatin was used for yeasts and fungi. Minimum bactericidal concentration (MBC) corresponds to the lowest EO or extract concentration that can kill the microorganism. The same microdilution experiment used in determining the MIC was used.” left out

Trichophyton rubrum [18] = assay: MIC by gradient plate method, MBC; type: cell-based; details: head does not say MIC or MBC
Protocol: as §1, with “Chloramphenicol was used as a positive control for bacteria, while nystatin was used for yeasts and fungi. Minimum bactericidal concentration (MBC) corresponds to the lowest EO or extract concentration that can kill the microorganism. The same microdilution experiment used in determining the MIC was used.” left out

[19] = Ferric reducing antioxidant power (FRAP) assay; details: mean of triplicates ± SD
ABTS antioxidant assay = details: mean of triplicates ± SD
tyrosinase = tyrosinase (Agaricus bisporus, UniProt C7FF04); details: basil EOs from different cultivars, arbutin as positive control ref 111; cited from earlier work
Sequence of tyrosinase (C7FF04 1-392): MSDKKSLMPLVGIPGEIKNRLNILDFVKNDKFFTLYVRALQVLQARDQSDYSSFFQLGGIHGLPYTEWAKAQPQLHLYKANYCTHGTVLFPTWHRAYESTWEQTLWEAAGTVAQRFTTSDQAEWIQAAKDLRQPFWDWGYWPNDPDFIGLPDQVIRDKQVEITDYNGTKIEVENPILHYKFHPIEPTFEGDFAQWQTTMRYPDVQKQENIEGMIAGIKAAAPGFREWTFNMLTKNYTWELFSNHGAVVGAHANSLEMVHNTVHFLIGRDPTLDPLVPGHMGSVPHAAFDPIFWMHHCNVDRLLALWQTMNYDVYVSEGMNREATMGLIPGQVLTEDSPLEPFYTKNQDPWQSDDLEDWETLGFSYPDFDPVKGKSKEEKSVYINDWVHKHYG

[20] = set-up: method as in PMID 35926753; details: LPS-treated rats, oral dose 500 mg/60 kg b.w. ref 109; cited from earlier work

MIC [1]: 2 µg/mL
MIC [2]: 4 µg/mL
MIC [3]: 4 µg/mL
MIC [4]: 64 µg/mL
MIC [5]: 4 µg/mL
MIC [6]: 32 µg/mL
Structure (SMILES): O=C(N[C@H](CO)[C@H](O)c1ccc([N+](=O)[O-])cc1)C(Cl)Cl [Chloramphenicol]
zone of inhibition at 30 µg/disc [7]: 27.9 ± 0.15 mm
zone of inhibition at 30 µg/disc [8]: 25 ± 0.25 mm
zone of inhibition at 30 µg/disc [9]: 22.2 ± 0.15 mm
zone of inhibition at 30 µg/disc [10]: 13.5 ± 0.15 mm
zone of inhibition at 30 µg/disc [11]: 21.9 ± 0.2 mm
Diameters of the inhibition zones ([12]; Bacillus subtilis ATCC 6633): 15.5 ± 0.15 mm
zone of inhibition at 30 µg/disc ([12]; Bacillus subtilis, ATCC6633, Bacillus subtilis ATCC 6633, read-out: Diameters of the inhibition zones): 15.7 mm

Structure (SMILES): C[C@@H]1[C@H](O)[C@@H](C)/C=C/C=C/CC/C=C/C=C/C=C/C=C/C(O[C@H]2O[C@H](C)[C@@H](O)[C@H](N)[C@@H]2O)CC2O[C@](O)(CC(O)C(O)CCC(O)CC(O)CC(O)CC(=O)O[C@H]1C)CC(O)C2C(=O)O (stereo partly drawn) [Nystatin]
Controls (MIC of positive control) (Candida albicans [13]): 4 µg/mL
Diameters of the inhibition zones (Aspergillus niger [14]): 26.4 ± 0.10 mm
Diameters of the inhibition zones (Trichophyton rubrum [15]): 24.9 ± 0.26 mm
Diameters of the inhibition zones (Candida albicans [16]): 29.7 ± 0.20 mm
Controls (MIC of positive control) (Aspergillus niger [17]): 16 µg/mL
Controls (MIC of positive control) (Trichophyton rubrum [18]): 16 µg/mL

IC50 FRAP [19]: 8.52 ± 0.17 ^c mg TEs/g
IC50 ABTS (ABTS antioxidant assay): 9.33 ± 0.07 ^c mg TEs/g
Structure (SMILES): Cc1c(C)c2c(c(C)c1O)CCC(C)(C(=O)O)O2 (stereo not drawn) [Trolox]

Structure (SMILES): OC[C@H]1O[C@@H](Oc2ccc(O)cc2)[C@H](O)[C@@H](O)[C@@H]1O [arbutin]
Tyrosinase inhibitory activity (tyrosinase): 81.5 ± 2.6%

Structure (SMILES): O=C(O)c1ccccc1 [benzoic acid]
Level of IL-1β [20]: 2.32 ± 0.28 × 10^3 pg/mL
Level of tumor necrosis factor-α (TNF-α) [20]: 5.70 ± 1.04 × 10^3 pg/mL
